The values below come from US20230382920A1, “SHMT Inhibitors” (The Trustees of Princeton University, priority 2020, published 2023).

In the assay the test system is HCT116. Briefly: HCT116 growth inhibition assay. The class given is cell-based. Particulars: without formate. As to the method:
Example 5. HCT116 Growth Inhibition and Formate Rescue Assays
3,000 Cells were plated in each well of a 96-well plate with 80 μL of DMEM media supplemented with 10% dFBS, and incubated for 24 hours. Drugs with or without sodium formate (1 mM) were then added to each well to a final volume of 100 μL. Cell growth was measured as fluorescence intensity by resazurin after four days. In short, resazurin was added to each well to a final concentration of 10 μg·mL^−1. After incubation for one hour, fluorescence was measured by a Synergy HT plate reader (BioTek Instruments).
Regarding `Cc1n[nH]c2c1C(c1cc(C#C[C@H]3C[C@H](C(C)(C)O)C3)cc(CO)c1)(C(C)C)C(C#N)=C(N)O2` (some centres unmarked) [KDG-0258-100], the IC50 result was “B″”.
Next, `Cc1n[nH]c2c1C(c1cc(C#C[C@H]3C[C@@H](CO)C3)cc(C(C)(C)O)c1)(C(C)C)C(C#N)=C(N)O2` (some centres unmarked) [KDG-0260-100]: “D″”; `Cc1n[nH]c2c1C(c1cc(C#C[C@H]3C[C@H](C(C)(C)O)C3)cc(C(C)(C)O)c1)(C(C)C)C(C#N)=C(N)O2` (some centres unmarked) [KDG-0261]: “C″”.
Next, `Cc1n[nH]c2c1C(c1cc(C#C[C@H]3C[C@@H](COC(N)=O)C3)cc(C(C)(C)O)c1)(C(C)C)C(C#N)=C(N)O2` (some centres unmarked) [KDG-0262-100]: “C″”.
For `Cc1n[nH]c2c1C(c1cc(C#C[C@H]3C[C@@H](C(=O)N(C)C)C3)cc(CO)c1)(C(C)C)C(C#N)=C(N)O2` (some centres unmarked) [KDG-0265-100], the IC50 entry was “B″”.
As for `CC(=O)OCC1CC(C#Cc2cc(CO)cc(C3(C(C)C)C(C#N)=C(N)Oc4[nH]nc(C)c43)c2)C1` (centres unmarked) [KDG-0266], the IC50 result is “B″”.
Next, `Cc1n[nH]c2c1C(c1cc(C#C[C@H]3C[C@@](C)(O)C3)cc(CO)c1)(C(C)C)C(C#N)=C(N)O2` (some centres unmarked) [KDG-0268]: “C″”; `CC(=O)O[C@]1(C)C[C@H](C#Cc2cc(CO)cc(C3(C(C)C)C(C#N)=C(N)Oc4[nH]nc(C)c43)c2)C1` (some centres unmarked) [KDG-0269]: “B″”.
Regarding `Cc1n[nH]c2c1C(c1cc(C#CC3CCC(=O)CC3)cc(CO)c1)(C(C)C)C(C#N)=C(N)O2` (centres unmarked) [KDG-0270-100], the IC50 result is “B″”.
Next, `Cc1n[nH]c2c1C(c1cc(C#CC3CN(C(=O)OC(C)(C)C)C3)cc(CO)c1)(C(C)C)C(C#N)=C(N)O2` (centres unmarked) [KDG-0271-0-pk1]: “A″”.
Take `Cc1n[nH]c2c1C(c1cc(C#CC3CN(C(=O)OC(C)(C)C)C3)cc(CO)c1)(C(C)C)C(C#N)=C(N)O2` (centres unmarked) [KDG-0271-0-pk2]: the IC50 result was “D″”.
Next, `Cc1n[nH]c2c1C(c1cc(C#CC3CNC3)cc(CO)c1)(C(C)C)C(C#N)=C(N)O2` (centres unmarked) [KDG-0271-200]: “D″”; `CC(=O)O[C@]1(C)CC[C@H](C#Cc2cc(CO)cc(C3(C(C)C)C(C#N)=C(N)Oc4[nH]nc(C)c43)c2)CC1` (some centres unmarked) [KDG-0272]: “A″”.
Then `COC(=O)N1CC(C#Cc2cc(CO)cc(C3(C(C)C)C(C#N)=C(N)Oc4[nH]nc(C)c43)c2)C1` (centres unmarked) [KDG-0281], with “B″”.
Next, `CC(=O)OCc1cc(C#CC2CN(C(=O)OC(C)(C)C)C2)cc(C2(C(C)C)C(C#N)=C(N)Oc3[nH]nc(C)c32)c1` (centres unmarked) [KDG-0284]: “B″”; `Cc1n[nH]c2c1C(c1cc(C#CC3CCN(C(=O)OC(C)(C)C)C3)cc(CO)c1)(C(C)C)C(C#N)=C(N)O2` (centres unmarked) [KDG-0287]: “B″”; `Cc1n[nH]c2c1C(c1cc(C#CC3CCCN(C(=O)OC(C)(C)C)C3)cc(CO)c1)(C(C)C)C(C#N)=C(N)O2` (centres unmarked) [KDG-0288]: “C″”.
Turning to `Cc1n[nH]c2c1C(c1cc(C#CC3CN(C(=O)OC(C)(C)C)C3)cc(COC(=O)C(C)C)c1)(C(C)C)C(C#N)=C(N)O2` (centres unmarked) [KDG-0293], the IC50 result is listed as “A″”.
Then `Cc1n[nH]c2c1C(c1cc(C#CC3CN(C(=O)OC(C)(O)O)C3)cc(COC(=O)C(N)C(C)O)c1)(C(C)C)C(C#N)=C(N)O2` (centres unmarked) [KDG-0294], with “B″”; and `Cc1n[nH]c2c1C(c1cc(C#CC3(C)CCN(C(=O)OC(C)(C)C)C3)cc(CO)c1)(C(C)C)C(C#N)=C(N)O2` (centres unmarked) [KDG-0304], with “B″”.
Next, `COC(=O)N1CCC(C)(C#Cc2cc(CO)cc(C3(C(C)C)C(C#N)=C(N)Oc4[nH]nc(C)c43)c2)CC1` (centres unmarked) [KDG-0308]: “B″”.
In the case of `Cc1n[nH]c2c1C(c1cc(C#C[C@H]3C[C@@H](NC(=O)OC(C)(C)C)C3)cc(CF)c1)(C(C)C)C(C#N)=C(N)O2` (some centres unmarked) [KDG-0383], the IC50 result is “B″”.
Then `Cc1n[nH]c2c1C(c1cc(C#C[C@H]3C[C@H](NC(=O)OC(C)(C)C)C3)cc(CO)c1)(C(C)C)C(C#N)=C(N)O2` (some centres unmarked) [KDG-0385, tert-butyl N-[(1r,3r)-3-[2-(3-[6-amino-5-cyano-4-isopropyl-3-methyl-1H-pyrano[2,3-c]pyrazol-4-yl]-5-(hydroxymethyl)phenyl)ethynyl]cyclobutyl]carbamate], with “B″”.
Consider `Cc1n[nH]c2c1C(c1cc(C#C[C@H]3C[C@](C)(NC(=O)OC(C)(C)C)C3)cc(CO)c1)(C(C)C)C(C#N)=C(N)O2` (some centres unmarked) [KDG-0387], for which the IC50 entry is on record as “B″”.
Next, `Cc1n[nH]c2c1C(c1cc(C#C[C@H]3C[C@H](NC(=O)OC(C)(C)C)C3)cc(CF)c1)(C(C)C)C(C#N)=C(N)O2` (some centres unmarked) [KDG-0390]: “B″”; `Cc1n[nH]c2c1C(c1cc(C#C[C@H]3C[C@@H](CNC(=O)OC(C)(C)C)C3)cc(CO)c1)(C(C)C)C(C#N)=C(N)O2` (some centres unmarked) [KDG-0395-100]: “B″”.
Next, `Cc1n[nH]c2c1C(c1cc(C#C[C@H]3C[C@H](CNC(=O)OC(C)(C)C)C3)cc(CO)c1)(C(C)C)C(C#N)=C(N)O2` (some centres unmarked) [KDG-0395]: “B″”.
Then `CCC(C)(C)OC(=O)N1CC(C#Cc2cc(CO)cc(C3(C(C)C)C(C#N)=C(N)Oc4[nH]nc(C)c43)c2)C1` (centres unmarked) [KDG-0411], with “B″”.
As to `Cc1n[nH]c2c1C(c1cc(C#CC3CN(C(=O)OC(C)C)C3)cc(CO)c1)(C(C)C)C(C#N)=C(N)O2` (centres unmarked) [KDG-0416], the IC50 entry is recorded as “A″”.
Then `COCC(C)(C)OC(=O)N1CC(C#Cc2cc(CO)cc(C3(C(C)C)C(C#N)=C(N)Oc4[nH]nc(C)c43)c2)C1` (centres unmarked) [KDG-0418], with “B″”; and `Cc1nnc(N[C@H]2CC[C@@H](C#Cc3cc(CO)cc(C4(C(C)C)C(C#N)=C(N)Oc5[nH]nc(C)c54)c3)CC2)o1` (some centres unmarked) [KDG-0516], with “C″”; and `Cc1nnc(N[C@H]2CC[C@H](C#Cc3cc(CO)cc(C4(C(C)C)C(C#N)=C(N)Oc5[nH]nc(C)c54)c3)CC2)o1` (some centres unmarked) [KDG-0518], with “C″”.
Next, `Cc1n[nH]c2c1C(c1cc(C#C[C@H]3C[C@@H](NC(=O)OC(C)C)C3)cc(CO)c1)(C(C)C)C(C#N)=C(N)O2` (some centres unmarked) [KDG-0520]: “A″”; `Cc1n[nH]c2c1C(c1cc(C#C[C@H]3C[C@@H](NC(=O)OCc4ccccc4)C3)cc(CO)c1)(C(C)C)C(C#N)=C(N)O2` (some centres unmarked) [KDG-0521]: “A″”.
Then `COC(=O)N[C@H]1C[C@H](C#Cc2cc(CO)cc(C3(C(C)C)C(C#N)=C(N)Oc4[nH]nc(C)c43)c2)C1` (some centres unmarked) [KDG-0522-100], with “B″”; and `COC(=O)N[C@H]1C[C@@H](C#Cc2cc(CO)cc(C3(C(C)C)C(C#N)=C(N)Oc4[nH]nc(C)c43)c2)C1` (some centres unmarked) [KDG-0522], with “B″”; and `Cc1n[nH]c2c1C(c1cc(C#C[C@H]3C[C@@H](NC(=O)NC(C)(C)C)C3)cc(CO)c1)(C(C)C)C(C#N)=C(N)O2` (some centres unmarked) [KDG-0523], with “B″”.
Consider `Cc1n[nH]c2c1C(c1cc(C#C[C@H]3C[C@@H](NC(=O)OCC(C)(C)C)C3)cc(CO)c1)(C(C)C)C(C#N)=C(N)O2` (some centres unmarked) [KDG-0524], for which the IC50 result is on record as “B″”.
Then `Cc1n[nH]c2c1C(c1cc(C#C[C@H]3C[C@@H](NC(=O)C(C)(C)C)C3)cc(CO)c1)(C(C)C)C(C#N)=C(N)O2` (some centres unmarked) [KDG-0526], with “B″”; and `Cc1n[nH]c2c1C(c1cc(C#C[C@H]3C[C@@H](NC(=O)CC(C)(C)C)C3)cc(CO)c1)(C(C)C)C(C#N)=C(N)O2` (some centres unmarked) [KDG-0527], with “B″”.
Then `Cc1n[nH]c2c1C(c1cc(C#C[C@H]3C[C@@H](NCC(=O)N(C)C)C3)cc(CO)c1)(C(C)C)C(C#N)=C(N)O2` (some centres unmarked) [KDG-0530], with “D″”; and `Cc1n[nH]c2c1C(c1cc(C#CC3CN(C(=O)CN(C)C)C3)cc(CO)c1)(C(C)C)C(C#N)=C(N)O2` (centres unmarked) [KDG-0547], with “D″”.
With `Cc1n[nH]c2c1C(c1cc(C#C[C@H]3C[C@@H](NC(=O)CN(C)C)C3)cc(CO)c1)(C(C)C)C(C#N)=C(N)O2` (some centres unmarked) [KDG-0554], the IC50 result is recorded as “C″”.
As to `Cc1n[nH]c2c1C(c1cc(C#C[C@H]3C[C@H](NC(=O)CN(C)C)C3)cc(CO)c1)(C(C)C)C(C#N)=C(N)O2` (some centres unmarked) [KDG-0555], the IC50 entry was “C″”.
Then `Cc1n[nH]c2c1C(c1cc(C#CC34CC(C(=O)N(C)C)(C3)C4)cc(CO)c1)(C(C)C)C(C#N)=C(N)O2` (centres unmarked) [KDG-0558], with “C″”; and `Cc1nnc(C23CC(C#Cc4cc(CO)cc(C5(C(C)C)C(C#N)=C(N)Oc6[nH]nc(C)c65)c4)(C2)C3)o1` (centres unmarked) [KDG-0573], with “B″”.
Next, `Cc1n[nH]c2c1C(c1cc(C#C[C@H]3C[C@@H](NC(=O)OC(C)(C)C)C3)cc(C(F)(F)F)c1)(C(C)C)C(C#N)=C(N)O2` (some centres unmarked) [KDG-0574]: “B″”.
